SMILES strings stand for the structures.

Data on four compounds can be found in PMC10568017, “A quest for the stereo-electronic requirements for selective agonism for the neurotrophin receptors TrkA and TrkB in 17-spirocyclic-dehydroepiandrosterone derivatives” (Frontiers in Molecular Neuroscience, 2023).

For data set [1] the following is noted: murine models; ref Bennett et al., 2016; Tsika et al., 2021; cited from earlier work.
The target in another data set is T1, CYP2C9 (Homo sapiens, UniProt P11712).
T1 construct: purchased Thermo Fisher Scientific; host or cells: Baculosomes
T1 sequence (P11712 whole entry): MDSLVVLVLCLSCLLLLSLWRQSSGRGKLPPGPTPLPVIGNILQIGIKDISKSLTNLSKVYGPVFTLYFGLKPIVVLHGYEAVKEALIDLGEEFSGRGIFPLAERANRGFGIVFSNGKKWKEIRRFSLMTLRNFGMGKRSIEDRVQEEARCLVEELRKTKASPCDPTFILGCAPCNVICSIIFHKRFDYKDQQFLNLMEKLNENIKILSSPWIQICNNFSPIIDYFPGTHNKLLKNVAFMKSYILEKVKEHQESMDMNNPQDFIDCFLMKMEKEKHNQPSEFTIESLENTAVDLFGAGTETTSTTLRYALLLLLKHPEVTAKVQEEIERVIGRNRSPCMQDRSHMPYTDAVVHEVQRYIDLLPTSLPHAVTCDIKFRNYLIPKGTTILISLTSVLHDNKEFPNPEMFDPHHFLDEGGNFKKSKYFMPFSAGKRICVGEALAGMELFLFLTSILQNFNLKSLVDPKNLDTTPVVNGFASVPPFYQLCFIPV
As to the kind of experiment: Isozyme-specific CYP450 inhibition, CYP2C9. In kind it is in vitro ADME. To be noted: 1 μM, 60 min, recombinant human CYP450 (Baculosomes). How it is done: Human cytochrome P450 (CYP450) isoenzymes were expressed in Baculosomes®, purchased from Thermo Fisher Scientific (Waltham, MA, USA). All reagents were handled and prepared according to the manufacturer's protocol. Test compounds were assessed at 1 μM for their effects on CYP1A2, CYP2A6, CYP2C9, CYP2C19, CYP2D6, and CYP3A4. Approximately 1 μM was selected based on our ADMET standard operating procedures and protocols also published previously (Rogdakis et al., [2022]; Yilmaz et al., [2022]). CYP450-enzymatic activity was determined based on the kinetic model for each CYP450 isoform (Cohen et al., [2003]; Veith et al., [2009]). Reactions took place in triplicates at 20°C. For this, NADP^+ (10 mM in 100 mM potassium phosphate, pH 8.0) was converted into NADPH by the regeneration system present (glucose-6-phosphate at 333 mM and glucose-6-phosphate-dehydrogenase at 30 U/mL in 100 mM potassium phosphate, pH 8.0). Following the addition of the fluorescent substrate, signal monitoring over time took place immediately (<2 min) at suitable excitation and emission wavelengths (Agilent BioTek Lionheart FX). CYP450 inhibition (%) was determined based on the reaction rates (fluorescence intensity changes per unit time). In total, n = 60 measurements […] were acquired (t = 60 min).
% Inhibition=(1-X/A)×100%
X is the rate observed in the presence of the test compound.
A is the rate observed in the presence of the negative (solvent, DMSO) control.

The target of another data set is T2, TrkB (Mus musculus, UniProt P15209).
T2 construct: primary cortical astrocytes from 2-day-old mice (as a natively TrkB-expressing neuronal population); endogenous in cells; host or cells: primary cortical astrocytes from C57B/6 mouse pups (P2)
T2 sequence (P15209 32-821): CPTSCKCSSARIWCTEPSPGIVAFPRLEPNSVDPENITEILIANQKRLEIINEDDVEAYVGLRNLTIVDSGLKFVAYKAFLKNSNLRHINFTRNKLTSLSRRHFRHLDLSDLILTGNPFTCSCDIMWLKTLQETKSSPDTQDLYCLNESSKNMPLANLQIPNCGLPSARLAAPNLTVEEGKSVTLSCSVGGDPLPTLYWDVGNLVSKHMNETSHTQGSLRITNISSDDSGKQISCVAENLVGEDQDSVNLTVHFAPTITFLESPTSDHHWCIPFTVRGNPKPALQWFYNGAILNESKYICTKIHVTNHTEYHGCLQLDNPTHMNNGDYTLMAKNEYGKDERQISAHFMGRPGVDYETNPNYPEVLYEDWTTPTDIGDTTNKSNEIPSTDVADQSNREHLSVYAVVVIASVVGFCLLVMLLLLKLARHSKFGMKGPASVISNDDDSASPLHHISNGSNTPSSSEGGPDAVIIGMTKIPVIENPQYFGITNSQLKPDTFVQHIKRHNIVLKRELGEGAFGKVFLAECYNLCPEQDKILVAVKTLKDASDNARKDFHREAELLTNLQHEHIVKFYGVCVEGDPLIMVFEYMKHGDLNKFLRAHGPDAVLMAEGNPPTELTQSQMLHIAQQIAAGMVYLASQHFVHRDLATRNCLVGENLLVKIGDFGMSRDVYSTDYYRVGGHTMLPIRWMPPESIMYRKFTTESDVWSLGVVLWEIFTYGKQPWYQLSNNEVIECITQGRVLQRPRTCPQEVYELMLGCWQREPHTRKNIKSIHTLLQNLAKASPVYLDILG
As to the kind of experiment: TrkB phosphorylation assay in primary astrocytes (Western blot). It counts as cell-based. To be noted: compound 1 μM, 20 min, after 6 h serum starvation, BDNF 500 ng/mL as control. Here is the method: (§1) We tested compounds on three cellular systems, primary cortical astrocytes from 2-day-old mice (as a natively TrkB-expressing neuronal population), and NIH-3T3 fibroblasts stable transfected with TrkB and NIH-3T3 naïve cells. Cells were grown with high-glucose DMEM medium supplemented with 10% fetal bovine serum (FBS), 100 μg/mL streptomycin, and 100 units/mL penicillin at 37°C in a humidified 5% CO2 atmosphere. Phosphorylation results presented here are in primary astrocytes, and cell toxicity assay results are in NIH-3T3 stable transfected cells with TrkB.
Cells were plated in 12 well plates, at a density of 100,000 cells per well, with 6 h of serum deprivation carried out on the following day. To assess the effect of compounds on TrkB phosphorylation, 20-min treatments were applied, using either BDNF at 500 ng/mL (Peprotech 450-02) (positive control) or compounds at 1 μM.
Cell lysis for 10 min was carried out on ice using the Pierce IP Lysis Buffer by Thermo Scientific and a phospho-protease inhibitor cocktail by Millipore. After adding loading buffer (5 × Laemni), 25 μg from each protein sample were incubated for 5 min at 95°C and subjected to SDS-PAGE. Proteins were transferred to a nitrocellulose membrane at 350 mA for 2 h. Membrane blocking was performed using 5% bovine serum albumin (BSA) at room temperature for 1 h, before adding the primary antibodies to the blocking solution at 4°C overnight. HRP-conjugated secondary antibodies were used for the detection of chemiluminescence with ECL solution. Primary antibodies: Phospho-TrkB (Tyr816) Millipore # ABN1381, and Anti-TrkB Abcam #ab33655.
Mixed glial cultures were isolated from the cortex of C57B/6 pups at post-natal day 2 (P2). Cells were plated in a medium containing high-glucose DMEM, 200 U/mL penicillin, 200 μg/mL streptomycin, and 10% fetal bovine serum (FBS). When cells reach 100% confluency (7–8 days), the anti-mitotic agent Ara-C was added in the media at a final concentration of 10 μM, for 3 to 4 days to target the highly proliferative microglial cells. Ara-C was removed, and primary astrocytes (97% purity) were cultured at 5% CO2 and 37°C.
Cells were plated at 70–80% confluency. The next day, they were deprived of serum for 6 h and subsequently treated with 500 ng/mL BDNF or 1 μM of compounds for 20 min. Cells were then lysed in Pierce™ IP Lysis Buffer (87788, Thermo Fischer Scientific, Rockford, USA), containing proteases (539138, Calbiochem, Darmstadt, Germany), and phosphatase inhibitors (524629, Calbiochem, Darmstadt, Germany). Lysates were then suspended in an SDS loading buffer and subjected to Western blot against phosphorylated TrkB (1:1,000, ABN1381, Sigma-Aldrich, St. Louis, MO, USA) and total TrkB (1:1,000, 07-225-I, Sigma-Aldrich, St. Louis, MO, USA).

The test system of data set [2] is NIH-3T3 TrkB-expressing cell line. As to the kind of experiment: CellTox Green cytotoxicity assay in NIH-3T3 cells stable transfected with TrkB under serum deprivation. In kind it is cell-based. As to conditions: compound 1 μM, 24 h, after 24 h serum starvation; BDNF 500 ng/mL as control. How it is done:
as §1
NIH-3T3 stable transfected cells with TrkB were plated in 96-well plates at a density of 10,000 cells/well, before carrying out serum starvation for 24 h. Cells were then treated for 24 h with either BDNF at 500 ng/mL (control) or the compounds at 1 μM.
For the cell toxicity assay, we used CellTox™ Green Dye (2,000 × , Promega) for the visualization of dead cells and Hoechst 33,342 solution (10,000 × ) for total cells. A ZEISS Axio Vert.A1 microscope was used for image capture, and the ImageJ software (https://imagej.nih.gov/ij/) was used for analysis. The number of CellTox positive cells was normalized against the total number of cells observed in each image.
The NIH-3T3 TrkB cell line, which is stable and transfected to specifically express the TrkB receptor, was used for the screening of the new compounds for their ability to protect cells from serum deprivation-induced apoptosis through the activation of the TrkB receptor. Cell death was induced by serum deprivation for 24 h and then BDNF (500 ng/mL), the native neurotrophin ligand of the TrkB receptor, or compounds ENT-A007, ENT-A009, ENTA025, ENT-A026, ENT-A033, ENT-A034, ENT-A035, ENT-A036, ENT-A037, ENT-A046, ENT-A047, ENT-A055, and ENT-A056 (1 μM) were added to the media for 24 h.

The nature of data set [3]: Metabolic stability in pooled human liver microsomes. In kind it is in vitro ADME. As to conditions: 1 μM. Here is the method: For metabolic stability assessment, pooled human liver microsomes were employed at 0.5 mg/mL. Incubation conditions were optimized to ensure linear metabolite formation with respect to protein concentration and reaction time. All test compounds were assessed at 1 μM based on our ADMET standard operating procedures and protocols, also published previously (1 μM was selected based on our ADMET standard operating procedures and protocols also published previously) (Rogdakis et al., [2022]; Yilmaz et al., [2022]). Approximately 1 mM of NADPH served as a cofactor. Reactions took place in triplicates at 37°C. Negative and positive controls (low vs. rapid clearance) were included for low vs. rapid clearance. After 60 min, reactions were terminated.
Parent structure loss is classified as very slow (<5%), slow (5–19%), moderate (20–50%), fast (50–80%), or very fast (>80%). Such categories have been defined according to set criteria, namely, high metabolism (t1/2 value of <30 min), moderate metabolism (30 min <t1/2 value of <60 min), and low metabolism (t1/2 value of >60 min) (EMA, [2012], [2013]; FDA, [2020]).

The target of a further data set is T3, TrkA (Rattus norvegicus, UniProt P35739).
T3 construct: PC12 cells, which express receptors TrkA and p75; endogenous in cells; host or cells: PC12 cells
T3 sequence (P35739 33-799): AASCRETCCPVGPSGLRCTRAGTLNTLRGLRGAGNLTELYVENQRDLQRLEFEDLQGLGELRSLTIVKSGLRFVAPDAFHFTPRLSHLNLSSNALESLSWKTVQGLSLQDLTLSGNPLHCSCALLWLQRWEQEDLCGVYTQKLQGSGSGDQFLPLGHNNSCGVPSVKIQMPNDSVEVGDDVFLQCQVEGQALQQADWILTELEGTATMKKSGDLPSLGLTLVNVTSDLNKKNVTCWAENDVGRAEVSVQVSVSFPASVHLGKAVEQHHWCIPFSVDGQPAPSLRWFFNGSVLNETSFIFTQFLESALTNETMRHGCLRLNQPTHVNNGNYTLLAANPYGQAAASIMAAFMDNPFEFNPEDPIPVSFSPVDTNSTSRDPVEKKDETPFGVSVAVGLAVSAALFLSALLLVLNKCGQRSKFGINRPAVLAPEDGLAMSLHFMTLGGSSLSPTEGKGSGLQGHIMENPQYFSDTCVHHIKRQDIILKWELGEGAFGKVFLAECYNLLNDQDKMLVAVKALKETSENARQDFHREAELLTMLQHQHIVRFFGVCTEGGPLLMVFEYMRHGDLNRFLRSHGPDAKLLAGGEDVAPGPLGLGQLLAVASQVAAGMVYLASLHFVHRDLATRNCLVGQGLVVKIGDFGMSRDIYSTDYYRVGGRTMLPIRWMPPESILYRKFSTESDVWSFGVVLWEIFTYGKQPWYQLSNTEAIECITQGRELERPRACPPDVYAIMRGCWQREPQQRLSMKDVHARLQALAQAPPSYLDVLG
Nature of the data set: TrkA phosphorylation in PC12 cells (immunoprecipitation / Western blot). As to conditions: compound 500 nM, 30 min, NGF 100 ng/mL as control. It counts as cell-based. Here is the method:
(§2) PC12 cells were obtained from LGC Promochem and cultured under specified conditions. Cells were grown in DMEM medium (Thermo Fischer Scientific, cat# 10566016) containing 10% horse serum (Thermo Fischer Scientific, cat# 16050122), 5% fetal bovine serum (Thermo Fischer Scientific, cat# 10270106), 100 units/mL penicillin, and 0.1 mg/mL streptomycin (Thermo Fischer Scientific, cat# 15140122) at 5% CO2 and 37°C. Cells were used between passages 5 and 20.
For immunoprecipitation experiments, PC12 cells were used when they were at 70–80% confluent. Cells were starved from serum for 4 h and subsequently treated with 100 ng/mL NGF (Alomone Labs, cat# N-100) or 500 nM of each compound for 30 min. Cells were then lysed in Pierce™ IP Lysis Buffer (Thermo Fischer Scientific, cat# 87787) containing proteases (Sigma-Aldrich, cat# 539131) and phosphatase inhibitors (Millipore, cat# 524629). Lysates were then immunoprecipitated overnight at 4°C with TrkA antibody (1:100, Millipore, cat# 06-574) followed by 4 h incubation with protein G-plus agarose beads (Santa Cruz Biotechnology, cat# sc-2002). Beads were then collected, washed three times with lysis buffer, resuspended in SDS loading buffer, and subjected to Western blot against phosphorylated Tyrosine (1:1000, R&D systems, cat# BAM1676). […]

Another data set deals with PC12 cells. As to the kind of experiment: CellTox assay, survival of PC12 cells under serum deprivation. To be noted: compound 500 nM, 24 h, after 4 h serum starvation; NGF 100 ng/mL as control (Figure 9). In kind it is cell-based. Here is the method: as §2
CellTox assay (G8742, Promega, Leiden, Belgium) was used to assess the survival of PC12 cells under serum deprivation conditions. PC12 cells were plated in 96-well plates, starved from serum for 4 h, and subsequently treated with NGF (100 ng/mL) or compound (500 nM) for 24 h. CellTox assay reagents and Hoescht (1:10,000, H3570, Invitrogen, Massachusetts, USA) were then added to each well for 30 min, and then, cells were imaged with a Zeiss AXIO Vert A1 fluorescent microscope. CellTox positive cells were normalized to the total number of cells for each image.
Initially, we tested compounds ENT-A002, ENT-A007, ENT-A009, ENTA025, ENT-A026, ENT-A033, ENT-A034, ENT-A035, ENT-A036, ENT-A037, ENT-A046, ENT-A047, ENT-A055, and ENT-A056 for their ability to protect PC12 cells from serum deprivation-induced cell death as well as for their ability to activate TrkA downstream pro-survival signaling kinases Akt and Erk1/2 (Figures 9A–C). We opted to employ PC12 cells, which express receptors TrkA and p75 and have been routinely used for investigating NGF-TrkA signaling. PC12 cells were subjected to a period of nutrient deprivation (without fetal bovine serum and horse serum in their culture medium) for 4 h. Following this, NGF (100 ng/mL) or one of the compounds (500 nM or 1 μM) was administered and allowed to interact with the cells for 24 h. Following that, CellTox and Hoescht dyes were added and cells were imaged to assess cell death. Control cases involved cells cultured in full medium (serum), cells under starvation conditions (serum-free), and cells under starvation conditions treated with DMSO (SF+DMSO).

In another data set the test system is Erk1/2. As to the kind of experiment: Erk1/2 phosphorylation in PC12 cells (Western blot). As to conditions: compound 500 nM, 30 min, NGF 100 ng/mL as control. It counts as cell-based.

Take `CC12CCC(O)CC1=CCC1C2CCC2(C)C1CCC21OC1CO` (stereo not shown) [BNN27]: the “elimination constant (Kel)” value in data set [1] is 0.465 h⁻¹.

Regarding `CCOC(=O)C=CC1=CCC2(CCC3C4CC=C5CC(O)CCC5(C)C4CCC32C)OC1` [ENT-A007, Ethyl (E)-(3S,17R)-3-hydroxy-dihydrospiro[5-androstene-17,2′-pyran]-5′-yl-acrylate], the “inhibition for CYP2C9” value at CYP2C9 is listed as “moderate-to-strong inhibition”. For the same compound, the “phosphorylation levels of the TrkB receptor” value on TrkB is “only ENT-A009 and ENT-A055 successfully increased phosphorylation levels of the TrkB receptor”. In addition, the “protection of NIH-3T3-TrkB cells from serum deprivation-induced cell death (CellTox)” value (from here on “protection of NIH-3T3-TrkB cells”) in data set [2] is given as “significantly reduce cell death levels compared to the serum-free control, comparable to the BDNF action”.

Regarding `CC12CCC(O)CC1=CCC1C2CCC2(C)C1CCC21CC=C(C=CC#N)CO1` [ENT-A009, (E)-(3S,17R)-3-hydroxy-3′,6′-dihydrospiro[5-androstene-17,2′-pyran]-5′-acrylonitrile], the “inhibition for CYP2C9” value at CYP2C9 is “moderate-to-strong inhibition”. In addition, at TrkB, the “phosphorylation levels of the TrkB receptor” value is “successfully increased phosphorylation levels of the TrkB receptor compared to the untreated control”. Also, the “protection of NIH-3T3-TrkB cells” value in data set [2] is recorded as “significantly reduce cell death levels compared to the serum-free control, comparable to the BDNF action”.

Turning to `CC12CCC(O)CC1=CCC1C2CCC2(C)C1CCC21CC=C(CCl)CO1` [ENT-A025, (3S,17R)-5′-(chloromethyl)-3′,6′-dihydrospiro[5-androstene-17,2′-pyran]-3-ol], the “residual of time zero” value in data set [3] (pooled human liver microsomes 0.5 mg/mL, t = 60 min, NADPH) amounted to 92%. Also, the “parent structure loss (depletion) class” value in data set [3] (pooled human liver microsomes, 60 min) was “slow (slow (5–19%))”. Besides, the TrkA phosphorylation result on TrkA was “strongly induce TrkA and Erk1/2 phosphorylation, comparable to NGF action”. In addition, in the data set with PC12 cells, the “protection of PC12 cells from serum deprivation-induced cell death (CellTox)” value is “protect PC12 cells against serum deprivation-induced cell death”. In addition, in data set [2], the “protection of NIH-3T3-TrkB cells” value is on record as “cannot protect NIH3T3-TrkB cells from serum deprivation”. In addition, in the data set with Erk1/2, the Erk1/2 phosphorylation entry is “strongly induce TrkA and Erk1/2 phosphorylation, comparable to NGF action”.
